Results from patent US6410544B1, “Cholinergic agents in the treatment of presbyopia” (Allergan Sales, Inc., priority 1998, dated 2002).
“Also recorded” adds a separate entry of the source.

Tests used:
[1] = tested on: eye of a human adult with presbyopia; assay: Eye drop formulation given to a human adult with presbyopia; assay type: in vivo; settings: 0.1% weight/volume in base solution pH 6.4, human adult with presbyopia
Procedure: In a specific example of this invention, a base solution can be formulated as follows: Sodium Chloride 0.3%; Edetate Disodium 0.1%; Boric Acid 1.0%; Benzaliconium Chloride 0.01% Sodium Hydroxide (adjust to pH 6.4) and Water. Pilocarpine, at a concentration of 0.1% weight/volume, is added to the base solution. The above formulation is administered to the eye of a human adult with presbyopia, shown by their discomfort when reading, or their inability to read fine print.

[2] = tested on: pupil size; assay: Observation of pupil size in the refractometry study; assay type: in vivo, human; settings: after one topical drop, myopic and hyperopic presbyope
[3] = tested on: eye of a presbyopic myope; assay: Hartinger refractometry at distance and near after one topical drop, myopic presbyope; assay type: in vivo, human; settings: for Mean Refraction, Near OS: +1.50 sphere in the right eye for near fixation; for Mean Refraction, Near OD: +1.75 sphere in the left eye for near fixation
Procedure: (§1) This clinical study was designed to evaluate the effect of a low dose muscarinic agent such as Pilocarpine from 0.001% to less than 2% by weight values on the refractive status of the eye.
(§2) One drop of Pilocarpine 0.3% was administered topically to the eye of a presbyopic myope and hyperope, before and after Hartinger Refractometry at distance and near was performed by the same observer.
(§3) Refraction at distance and near was performed with the Hartinger Refractomer by the same observer prior to installation of Pilcarpine 0.3%. Three measurements were taken at distance and at near for each eye tested at each timepoint.
(§4) In the myopic presbyope, both eyes received Piolcarpine 0.3%. In the hyperopic presbyope, only the right eye received Pilocarpine 0.3%.
(§5) At approximately 30-50 and 60-90 minutes post installation of Pilocarpine, refraction measurements were repeated.

[4] = tested on: eye of a presbyopic myope; assay: as above; assay type: in vivo, human; settings: single measurements, time point printed '30 min, 3:45 pm'
[5] = tested on: eye of a presbyopic hyperope; assay: Hartinger refractometry at distance and near after one topical drop, hyperopic presbyope; assay type: in vivo, human
Procedure: as §1, §2, §3, §4, §5

CC[C@@H]1C(=O)OC[C@@H]1Cc1cncn1C [Pilocarpine 0.3%, Pilocarpine]
vision after administration of the eye drops [1]: Vision is improved
change in pupil size [2]: no notable change in pupil size; also recorded: no observable effect on pupil size
change in distance and near myopic correction ([3]; 30 and 60 minutes post dosing): small but definite decrease in the distance and near myopic correction which was greater at 60 than 30 minutes post dosing
Mean Refraction, Distance OD ([3]; 30 min post instillation): −1.06 diopters
Mean Refraction, Near OS ([3]; 30 min post instillation): −1.53 diopters
Mean Refraction, Near OD ([3]; 30 min post instillation): −1.8 diopters
Mean Refraction, Distance OD ([3]; 60 min post instillation): −1.05 diopters
Mean Refraction, Distance OS ([3]; 60 min post instillation): −1.25 diopters
Mean Refraction, Near OS ([3]; 60 min post instillation): −0.95 diopters
Mean Refraction, Near OD ([3]; 60 min post instillation): −1.5 diopters
Refraction, Distance OS [4]: −1.25 diopters
Refraction, Near OD [4]: −1.5 diopters
Mean Refraction, Distance OD ([5]; 50 min post instillation): +1.15 diopters
Mean Refraction, Near OD ([5]; 50 min post instillation, +2.5 sphere in the left eye for near fixation): +0.17 diopters
Mean Refraction, Distance OD ([5]; 90 min post instillation): +0.42 diopters
Mean Refraction, Near OD ([5]; 90 min post instillation, +2.50 sphere in the left eye for near fixation): +0.38 diopters
change in distance and near hyperopic correction ([5]; 90 minutes post dosing): small but definite decrease in the distance and near hyperopic correction
